Here are results for eight compounds from US20100298402A1, “STILBENE DERIVATIVES AS PSTAT3/IL-6 INHIBITORS” (ORCHID RESEARCH LABORATORIES LIMITED, priority 2007, published 2010).

SMILES strings stand for the structures.

Holding throughout (assay type): cell-based
For assay [1], the system named is HCT 116 (colon), NCIH460 (lung) and U251 (glioma) cell lines. Kind of assay: Anti-cancer screen (MTT growth inhibition, 48 hours).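 Also: mean GI50 across the three cell lines.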 The conditions noted are these: Homo sapiens; HCT 116, NCIH460 and U251 cell lines; MTT after 48 hours of incubation. The method, then:
The experimental drugs were screened for anti-cancer activity in three cell lines using five concentrations for each compound. The cell lines—HCT 116 (colon), NCIH460 (lung) and U251 (glioma) were maintained in DMEM containing 10% fetal bovine serum. 96-well microtiter plates are inoculated with cells in 100 μL of cell suspension (5×10^4 cells/mL) for 24 hours at 37° C., 5% CO2, 95% air and 100% relative humidity. A separate plate with these cell lines is also inoculated to determine cell viability before the addition of the compounds (T0)
Following 24-hour incubation, test compounds were added to the 96 well plates. Each plate contains one of the above cell lines and the following samples in triplicate: five different dilutions (0.01, 0.1, 1, 10 and 100 μM) of four test compounds, appropriate dilutions of a cytotoxic standard and growth medium (untreated) wells. Test compounds were dissolved in DMSO to prepare 20 mM stock solutions on the day of drug addition and serial dilutions were carried out in complete growth medium at 2× strength, such that 100 μL added to the wells gave final concentrations (0.01, 0.1, 1, 10 and 100 μM) in the well. SAHA was used as the standard drug in these experiments.
For T0 measurement, 24 hours after seeding the cells, 20 μL of 3-(4,5-dimethyl-2-thiazolyl)-2,5-diphenyl-2H-tetrazolium (MTT) solution per well was added to the ‘T0’ plate and incubated for 3 hours at 37° C. in a CO2 incubator. The plate containing cells and test compounds was treated similarly after 48 hours of incubation. After 3 hours of MTT addition, well contents were aspirated carefully followed by addition of 150 μL DMSO per well. Plates were agitated to ensure dissolution of the formazan crystals in DMSO and absorbance was read at 570 nm (A570).
Percent growth (PG) is calculated relative to the control and zero measurement wells (T0) as follows:
PG values are plotted against drug concentration to derive the following: GI50 is the concentration required to decrease PG by 50% vs control; TGI is the concentration required to decrease PG by 100% vs control and LC50 is the concentration required to decrease PG by 50% vs T0. (Mosmann T. Rapid colorimetric assay for cellular growth and survival: application to proliferation and cytotoxicity assays. (J. Immunol. Methods. 1983, 65 (1-2), 55-63; Anne Monks et al); feasibility of high-flux anticancer drug screen using a diverse panel of cultured human tumor cell lines”. (JNCI, Vol. 83, No. 11, 1991). Results for growth inhibition of synthesized compounds are given in Table-1.

Assay [2] concerns pSTAT3 in HEPG2 (liver cancer) cells induced by IL-6. Kind of assay: Inhibition of pSTAT3 (IL-6 induced phosphorylation of STAT3, Phospho-STAT3 (Tyr705) Sandwich ELISA). Particulars: Homo sapiens, 4 hours compound, then IL-6 (10 ng/mL) 30 minutes. The method, then:
The experimental drugs were tested for their effect on phosphorylation of STAT3 in HEPG2 (liver cancer) cells induced by IL-6. Test compounds were dissolved in DMSO at 20 mM and diluted in a growth medium at 2× strength. Final DMSO concentration was less than 0.5%. 100 μL of cell suspension (10×10^4 cells/mL) was added to the wells of 96 well plates and allowed to adhere for 24 hours in a CO2 incubator at 37° C. Following overnight incubation, the culture medium was replaced with 100 μL of fresh growth medium and 100 μL of test compound (s), standard (Curcumin) and growth medium (untreated) wells. The plates were incubated in CO2 incubator at 37° C. for 4 hours. After compound treatment, IL-6 (10 ng/mL) was added to the wells and incubated for 30 minutes to induce pSTAT3.
At the end of the 30 minutes incubation, cells were rinsed with ice-cold PBS and lysed with 1× Cell lysis buffer containing 1 mM PMSF (provided in the kit) on ice for 5 minutes. The cells were scraped off and transferred to an appropriate tube, sonicated on ice and centrifuged for 10 minutes at 4° C. The supernatant (cell lysate) was collected and stored at −80° C. and the levels of pSTAT3 were measured in the cell lysate by Path Scan Phospho-STAT3 (Tyr705) Sandwich ELISA kit (Cell Signaling, Cat No. 7300) by following the kit instructions.
(In general: ELISA stands for enzyme-linked immunosorbent assay.)

The subject of assay [3] is IL-6 in supernatant of NCIH 460 cells. Kind of assay: Measuring IL-6 in culture supernatants (ELISA). The conditions noted are these: Homo sapiens, NCI-H460, 5 hours incubation.

For orientation: GI50 means the concentration that inhibits growth by half. High values mean lower sensitivity of the cells, low ones greater sensitivity of the cells. As a reminder, the inhibition is the drop in the measured response relative to a control, in per cent. Low values mean a weak effect, high ones a strong effect. Take `COC(=O)/C(=C/c1ccc(OCC(O)CNCc2ccc(OC)cc2OC)cc1)c1ccc(F)cc1` (centres unmarked) [Example 35, 3-{4-[3-(2,4-Dimethoxybenzylamino)-2-hydroxypropoxy]phenyl}-2-(4-fluorophenyl)acrylic acid methyl ester]: the GI50 in assay [1] came out at 5.1 µM. The values for the inhibition at 10 µM in assay [2] and in assay [3] were 32.7% and 72.7%, respectively.
For `COC(=O)/C(=C/c1ccc(OCC(O)CNCc2ccc(OC)cc2OC)cc1)c1ccc(C)cc1` (centres unmarked) [Example 37, 3-{4-[3-(2,4-Dimethoxybenzylamino)-2-hydroxypropoxy]phenyl}-2-(4-methylphenyl)acrylic acid methyl ester], in that order: 6.2 µM, 42% and 68.1%.
For `COC(=O)/C(=C/c1ccc(OCC(O)CNCCOc2ccccc2OC)cc1)c1ccc(C)cc1` (centres unmarked) [Example 38, 3-{4-[3-(2-Methoxyphenoxyethylamino)-2-hydroxypropoxy]phenyl}-2-(4-methylphenyl)acrylic acid methyl ester], in that order: 9 µM, 77.2% and 69.1%.
On the same counts, the results for `COC(=O)/C(=C/c1ccc(OCC(O)CNCc2ccc(OC)cc2OC)cc1)c1cccs1` (centres unmarked) [Example 40, 3-{4-[3-(2,4-Dimethoxybenzylamino)-2-hydroxypropoxy]phenyl}-2-(thiophen-2-yl)acrylic acid methyl ester] are 9.7 µM, 71% and 70.5%.
In assay [1], `COC(=O)/C(=C/c1ccccc1OCC(O)CNCc1ccccc1)c1ccc(OC)cc1` (centres unmarked) [Example 43, 3-{2-[3-(Benzylamino)-2-hydroxypropoxy]phenyl}-2-(4-methoxyphenyl)acrylic acid methyl ester] returned a GI50 of 0.86 µM. Besides, the inhibition at 10 µM in assay [2] was 46.4%; in assay [3], 9.6%.
On the same counts, the results for `COC(=O)/C(=C/c1ccc(OCC(O)CNCc2ccccc2)cc1)c1cccc(Cl)c1` (centres unmarked) [Example 49, 3-{4-[3-(Benzylamino)-2-hydroxypropoxy]phenyl}-2-(3-chlorophenyl)acrylic acid methyl ester] are 2.1 µM, 58.4% and 56%.
In assay [2], `COc1ccc(CNCC(O)COc2ccc(/C(=C\c3ccc(F)c(F)c3)C(N)=O)cc2)c(OC)c1` (centres unmarked) [Example 64, 2-{4-[3-(2,4-Dimethoxybenzylamino)-2-hydroxypropoxy]phenyl}-3-(3,4-difluorophenyl)acrylamide] returned an inhibition at 10 µM of 32.2%.
Still for that read-out and setting: next, `COc1ccccc1OCCNCC(O)COc1ccc(/C(=C\c2ccc(F)c(F)c2)C(N)=O)cc1` (centres unmarked) [Example 65, 2-{4-[3-(2-Methoxyphenoxyethylamino)-2-hydroxypropoxy]phenyl}-3-(3,4-difluorophenyl)acrylamide]: 0%.
